Experimental data from patent publication US20040248918A1, “N-phenyl-2-pyrimidine-amine derivatives and process for the preparation thereof” (IL YANG PHARM. CO., LTD., priority 2003, published 2004).
Converted amounts (≈) assume the structure as drawn. Where a name gives a salt, the structure may show the parent alone.

Tests used:
[1] = system: K562 cancer cell (CML cell line); assay: Growth inhibition of K562 cancer cell (MTT); assay type: cell-based; conditions: Homo sapiens, K562, 48 h, K562, 2 days, MTT; read-out: IC50
Protocol: In the present experiment, the inhibitory activity of the compound of formula (1) was determined against the growth of K562 cancer cell. First, the cells were allowed to stand in RPMI (Roswell Park Memorial Institute)-1640 medium containing 10% (v/v) fetal bovine serum in an incubator of 37° C. and 5% by volume of CO2. The cancer cells (1000 cells) were transferred to a 96-well plate, and the test compound was diluted. The plate was allowed to stand under the above mentioned conditions for 2 days. […] The supernatant was removed to leave the resulting crystal.

[2] = system: L1210 cancer cell (leukemia cell line); assay: Growth inhibition of L1210 cancer cell (MTT); assay type: cell-based; conditions: for IC50: Mus musculus
Protocol: (§1) In the present experiment, the inhibitory activity of the compound of formula (1) was determined against the growth of K562 cancer cell. First, the cells were allowed to stand in RPMI (Roswell Park Memorial Institute)-1640 medium containing 10% (v/v) fetal bovine serum in an incubator of 37° C. and 5% by volume of CO2. The cancer cells (1000 cells) were transferred to a 96-well plate, and the test compound was diluted. The plate was allowed to stand under the above mentioned conditions for 2 days. After this treatment, to the cells was added 0.2% MTT (3-[4,5-dimethylthiazol-2-yl]-2,5-diphenyltetrazolium bromide) solution, and the resulting mixture was allowed to stand under the constant temperature-condition for 4 hours. The supernatant was removed to leave the resulting crystal. DMSO was added to dissolve the crystal, and the absorbance of the solution was measured at 540 nm. IC50 value was calculated using a computer system according to the following formula: […]
In the present experiment, the inhibitory activity of the compound of formula (1) was determined against the growth of L1210 cancer cell. The test was performed according to the same procedure as Experiment 1.

[3] = system: U937 cancer cell (monocyte like leukemia cell line); assay: Growth inhibition of U937 cancer cell (MTT); assay type: cell-based; conditions: for IC50: Homo sapiens, U-937
Protocol: as §1
In the present experiment, the inhibitory activity of the compound of formula (1) was determined against the growth of U937 cancer cell. The test was performed according to the same procedure as Experiment 1.

[4] = Comparative pharmacokinetic test in white rats; assay type: in vivo, white rats (Sprague-Dawley); conditions: male, Sprague-Dawley, plasma, po, rat, P.O.; for AUC: trapezoid rule
Protocol: On the previous day to the test, white rats (Sprague-Dawley, 250˜280 g, male) were put under anesthesia by pentobarbital sodium (50 mg/kg, I.P.). Then, cannula (polyethylene tube; diameter: 0.58mm) was introduced into the rats via the carotid artery and jugular vein, and drawn out to the back. After the operation, the rats were fasted for 16 hours and used for the test. […] Blood was collected in 0, 0.5, 1, 1.5, 2, 2.5, 3, 3.5, 4, 4.5, 5, 6, 8, 10, 12, and 24 hours from the carotid artery. The samples for HPLC analysis were prepared using the collected blood according to the following procedure and were analyzed under the following conditions.
Blood was collected by an amount of 0.5 ml at each prearranged time and centrifuged at 15000 rpm for 7 minutes to separate […] of plasma. In order to remove proteins, MeOH was added in an amount of […], twice as much as the amount of plasma, and the mixture was shaken for 30 minutes. The mixture was centrifuged again at 15000 rpm for 5 minutes to give protein free supernatant, which was then analyzed by HPLC.
Flow rate: 1.0 ml/min, UV detection at 267 nm
Column: 4.6×150 mm, 5C18-AR-II, COSMOSIL
Eluent: Mixture of ion pair sample (420 ml) and MeOH (580 ml)
Ion pair sample: 7.5 g of 1-octanesulfonic acid was dissolved in 800 ml of water. The resulting mixture was adjusted to pH 2.5 using phosphoric acid and diluted with water to 1000 ml volume.
Here, the pharmacokinetic parameters are Tmax (time to reach the maximum blood concentration), Cmax (maximum blood concentration), AUC (area under the curve of time-blood concentration), and T1/2 (half time in blood), and the AUC was calculated under trapezoid rule (see Tables 6, 7 and FIGS. 1, 2).

[5] = system: pancreatic cancer cell of PANC-1; assay: Growth inhibition of PANC-1 (MTT); assay type: cell-based
[6] = system: pancreatic cancer cell of CAPAN-2; assay: Growth inhibition of CAPAN-2 (MTT); assay type: cell-based; conditions: CAPAN-2
[7] = system: colon cancer cell of SNU-C1; assay: Growth inhibition of SNU-C1 (MTT); assay type: cell-based
[8] = system: rectal cancer cell of CMT-93; assay: Growth inhibition of CMT-93 (MTT); assay type: cell-based
Protocol: as §1
(§2) The test was performed according to the same procedure as Experiment 1.

[9] = system: cervical cancer cell of HeLa229; assay: Growth inhibition of HeLa 229 (MTT); assay type: cell-based
[10] = system: encephalophyma cell of A172; assay: Growth inhibition of A172 (MTT); assay type: cell-based
Protocol: as §1, §2

[11] = system: bladder cancer cell of HT-1197; assay: Growth inhibition of HT-1197 (MTT); assay type: cell-based
Protocol: as §1, §2

lung cancer cell (A549) = assay: Growth inhibition of A549 (MTT); assay type: cell-based; conditions: Homo sapiens
Protocol: as §1, §2

[12] = system: gastric cancer cell (KATO III); assay: Growth inhibition of KATO III (MTT); assay type: cell-based; conditions: Homo sapiens
Protocol: as §1, §2

[13] = system: oral epithelial cancer cell (KB); assay: Growth inhibition of KB (MTT); assay type: cell-based; conditions: Homo sapiens
Protocol: as §1, §2

[14] = system: hematologic malignancy cell (HL-60); assay: Growth inhibition of HL-60 (MTT); assay type: cell-based; conditions: Homo sapiens
[15] = system: ovarian cancer cell (SK-OV-03); assay: Growth inhibition of SK-OV-03 (MTT); assay type: cell-based
Protocol: as §1, §2

[16] = system: breast cancer cell (MCF-7); assay: Growth inhibition of MCF-7 (MTT); assay type: cell-based; conditions: Homo sapiens, MCF7
Protocol: as §1, §2

[17] = system: prostatic cancer cell (DU-145); assay: Growth inhibition of DU-145 (MTT); assay type: cell-based; conditions: Homo sapiens
Protocol: as §1, §2

[18] = system: acute myelogenous leukemia cell (KG-1); assay: Growth inhibition of KG-1 (MTT); assay type: cell-based
[19] = system: lymphoma cell (RPMI-6666); assay: Growth inhibition of RPMI-6666 (MTT); assay type: cell-based
Protocol: as §1, §2

hepatoma cell (SNU-182) = assay: Growth inhibition of SNU-182 (MTT); assay type: cell-based; conditions: Homo sapiens
Protocol: as §1, §2

[20] = Acute toxicity test in mice (oral administration); conditions: both sexes, ICR, mouse, in vivo, 2000 mg/kg; mice, oral
Protocol: (§3) In order to determine the acute toxicity of the compound of the present invention when the compound is orally administered, mice (ICR, 24˜26 g) were fasted for 16 hours. One group consists of 10 males and 10 females. The first group is the control group and physiological saline was administered per oral to this group. The compounds of Examples 2 and 4 were orally administered in a dosage of 2000 mg/kg, the maximum dosage in acute toxicity test, to each test group. […] On the last day of the test, 14th day from the start, the mice were subjected to an autopsy in order to examine changes of the internal organs. […] This means that the compounds of the present invention including those of Examples 2 and 4 are safe in the aspect of acute toxicity.

mice (ICR) = assay: Acute toxicity test in mice (oral administration); conditions: mouse, in vivo, po, 2000 mg/kg
Protocol: as §3

COc1ccc(NC(=O)c2ccc(CNN3CCN(C)CC3)cc2)cc1Nc1nccc(-c2cccnc2)n1.CS(=O)(=O)O [Example 22, 4-(4-methylpiperazin-1-ylaminomethyl)-N-[4-methoxy-3-(4-(pyridin-3-yl)pyrimidin-2-yl)aminophenyl]benzamide methanesulfonate]
IC50 [1]: 10 µg/mL
IC50 [2]: 4.46 µg/mL
IC50 [3]: 8.61 µg/mL
melting point: 142 to 144 °C

CS(=O)(=O)O.Cc1ccc(Nc2nccc(-c3cccnc3)n2)cc1NC(=O)c1ccc(CN2CCCN(C)CC2)cc1 [Example 6, 4-(4-methylhomopiperazin-1-ylmethyl)-N-[2-methyl-5-(4-(pyridin-3-yl)pyrimidin-2-yl)aminophenyl]benzamide methanesulfonate]
IC50 [1]: 20.5 µg/mL
Improved activity versus Imatinib mesylate [2]: 10 times
IC50 [2]: 3.24 µg/mL
IC50 [3]: 5.14 µg/mL
melting point: 168 to 170 °C

Cc1ccc(NC(=O)c2ccc(CN3CCN(C)CC3)cc2)cc1Nc1nccc(-c2cccnc2)n1 [Imatinib mesylate, reference compound]
Cmax ([4]; 100 mg/kg): 2720 ng/mL
Tmax ([4]; 100 mg/kg): 2.3 h
AUC ([4]; 100 mg/kg): 26500 ng·h/mL

CN1CCCN(Cc2ccc(C(=O)Nc3cccc(Nc4nccc(-c5cccnc5)n4)c3)cc2)CC1.CS(=O)(=O)O [Example 12, 4-(4-methylhomopiperazin-1-ylmethyl)-N-[3-(4-(pyridin-3-yl)pyrimidin-2-yl)aminophenyl]benzamide methanesulfonate]
IC50 [1]: 10.2 µg/mL
Improved activity versus Imatinib mesylate [2]: 32 times
IC50 [2]: 0.99 µg/mL
IC50 [3]: 3.41 µg/mL
melting point: 206 to 208 °C

N.N.[Cl][Pt][Cl] [Cisplatin, cisplatin, reference compound]
IC50 [5]: 41.55 µg/mL
IC50 [6]: 496.9 µg/mL
IC50 [7]: 302 µg/mL
IC50 [8]: 0.67 µg/mL
IC50 [9]: 0.9 µg/mL
IC50 [10]: 5.7 µg/mL
IC50 [11]: 7.5 µg/mL

CS(=O)(=O)O.Cc1ccc(NC(=O)c2ccc(CN3CCCN(C)CC3)cc2)cc1Nc1nccc(-c2cccnc2)n1 [Example 2, 4-(4-methylhomopiperazin-1-ylmethyl)-N-[4-methyl-3-(4-(pyridin-3-yl)pyrimidin-2-yl)aminophenyl]benzamide methanesulfonate]
IC50 [1]: 1.2 µg/mL
IC50 [2]: 7.6 µg/mL
Improved activity versus Imatinib mesylate [3]: 40 times
IC50 [3]: 0.7 µg/mL
IC50 (lung cancer cell (A549)): 27.6 µg/mL
IC50 [12]: 30 µg/mL
IC50 [13]: 31.6 µg/mL
IC50 [14]: 17.7 µg/mL
IC50 [15]: 38 µg/mL
IC50 [16]: 36.2 µg/mL
IC50 [17]: 30.3 µg/mL
IC50 as fraction of that of Imatinib mesylate [18]: ¼
IC50 ([18]; Homo sapiens): 7.31 µg/mL
IC50 as fraction of that of Imatinib mesylate [19]: ½
IC50 ([19]; Homo sapiens): 14.7 µg/mL
IC50 (hepatoma cell (SNU-182)): 24.7 µg/mL
Cmax ([4]; 50 mg/kg): 2200 ng/mL
Tmax ([4]; 50 mg/kg): 1.5 h
AUC ([4]; 50 mg/kg): 26200 ng·h/mL
LD50 at 14 days [20]: ≥ 2000 mg/kg
Clinical conditions and autopsy (mice (ICR)): neither abnormal response nor specific autopsy result was observed
Mortality during the test period (mice (ICR)): no mouse died

CS(=O)(=O)O.O=C(Nc1cccc(Nc2nccc(-c3cccnc3)n2)c1)c1ccc(CN2CCCCC2)cc1 [Example 36, 4-(piperidin-1-ylmethyl)-N-[3-(4-(pyridin-3-yl)pyrimidin-2-yl)aminophenyl]benzamide methanesulfonate]
IC50 [1]: 11.3 µg/mL
IC50 [2]: 5.95 µg/mL
IC50 [3]: 6.91 µg/mL
melting point: 173 to 175 °C

COc1ccc(NC(=O)c2ccc(CN3CCCN(C)CC3)cc2)cc1Nc1nccc(-c2cccnc2)n1.CS(=O)(=O)O [Example 20, 4-(4-methylhomopiperazin-1-ylmethyl)-N-[4-methoxy-3-(4-(pyridin-3-yl)pyrimidin-2-yl)aminophenyl]benzamide methanesulfonate]
IC50 [1]: 34.7 µg/mL
IC50 [2]: 4.32 µg/mL
IC50 [3]: 9.51 µg/mL
melting point: 140 to 142 °C

CS(=O)(=O)O.Cc1ccc(Nc2nccc(-c3cccnc3)n2)cc1NC(=O)c1ccc(CNN2CCN(C)CC2)cc1 [Example 8, 4-(4-methylpiperazin-1-ylaminomethyl)-N-[2-methyl-5-(4-(pyridin-3-yl)pyrimidin-2-yl)aminophenyl]benzamide methanesulfonate]
IC50 [1]: 27.6 µg/mL
IC50 [2]: 7.38 µg/mL
IC50 [3]: 9.44 µg/mL
melting point: 150 to 152 °C

O=c1[nH]cc(F)c(=O)[nH]1 [Example 5-FU, 5-Fu, reference compound]
IC50 [5]: 553.8 µg/mL (≈ 4260 µM)
IC50 [6]: 1000> μg/ml
IC50 [7]: 95.3 µg/mL (≈ 733 µM)
IC50 [8]: 1.1 µg/mL (≈ 8.46 µM)
IC50 [9]: 81.03 µg/mL (≈ 623 µM)
IC50 [10]: 99 µg/mL (≈ 761 µM)
IC50 [11]: 98.5 µg/mL (≈ 757 µM)
